Experiments:
[1] = system: normal NK cells expanded with K562-aAPC; experiment: drug sensitivity score (DSS) (DSS units); higher = more sensitive; extreme values may be limits of the assay; settings: 72 h; IL-2 2.5 ng/mL
Method: (§1)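 Drug sensitivity and resistance testing on K562-aAPC-expanded normal NK cells: 5 concentrations (10-fold steps over a 10,000-fold range), 72 h at 37 °C, viability by CellTiter-Glo normalised to DMSO and benzethonium chloride controls; DSS from the fitted curve.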

[2] = system: normal NK cells expanded with K562-aAPC; experiment: percent inhibition of viability; higher = more inhibition; settings: 72 h, IL-2 2.5 ng/mL
Method: as §1

[3] = system: normal primary NK cells, pool 2 (3 donors) (IL-2 2.5 ng/mL); experiment: drug sensitivity score (DSS) (DSS units); higher = more sensitive; extreme values may be limits of the assay; settings: 72 h
NKL (IL-2 2.5 ng/mL) [4] = experiment: as above; settings: 72 h
NK-92 (IL-2 2.5 ng/mL) [5] = experiment: as above; settings: 72 h
[6] = system: normal primary NK cells, pool 3 (3 donors) (IL-2 2.5 ng/mL); experiment: as above; settings: 72 h
YT (IL-2 2.5 ng/mL) [7] = experiment: as above; settings: 72 h
NK-YS (IL-2 2.5 ng/mL) [8] = experiment: as above; settings: 72 h
[9] = system: normal primary NK cells, pool 1 (3 donors) (IL-2 2.5 ng/mL); experiment: as above; settings: 72 h
IMC-1 (IL-2 20 ng/mL) [10] = experiment: as above; settings: 72 h
DERL-7 (IL-2 2.5 ng/mL) [11] = experiment: as above; settings: 72 h
[12] = system: normal primary NK cells, pool 1 (3 donors), resting (IL-2 0 ng/mL); experiment: as above; settings: 72 h
KHYG-1 (IL-2 2.5 ng/mL) [13] = experiment: as above; settings: 72 h
KAI3 (IL-2 2.5 ng/mL) [14] = experiment: as above; settings: 72 h
SNK-6 (IL-2 2.5 ng/mL) [15] = experiment: as above; settings: 72 h
[16] = system: normal primary NK cells, pool 2 (3 donors) (IL-2 2.5 ng/mL); experiment: percent inhibition of viability; higher = more inhibition; settings: 72 h
NKL (IL-2 2.5 ng/mL) [17] = experiment: as above; settings: 72 h
NK-92 (IL-2 2.5 ng/mL) [18] = experiment: as above; settings: 72 h
[19] = system: normal primary NK cells, pool 3 (3 donors) (IL-2 2.5 ng/mL); experiment: as above; settings: 72 h
YT (IL-2 2.5 ng/mL) [20] = experiment: as above; settings: 72 h
NK-YS (IL-2 2.5 ng/mL) [21] = experiment: as above; settings: 72 h
[22] = system: normal primary NK cells, pool 1 (3 donors) (IL-2 2.5 ng/mL); experiment: as above; settings: 72 h
IMC-1 (IL-2 20 ng/mL) [23] = experiment: as above; settings: 72 h
DERL-7 (IL-2 2.5 ng/mL) [24] = experiment: as above; settings: 72 h
[25] = system: normal primary NK cells, pool 1 (3 donors), resting (IL-2 0 ng/mL); experiment: as above; settings: 72 h
KHYG-1 (IL-2 2.5 ng/mL) [26] = experiment: as above; settings: 72 h
KAI3 (IL-2 2.5 ng/mL) [27] = experiment: as above; settings: 72 h
SNK-6 (IL-2 2.5 ng/mL) [28] = experiment: as above; settings: 72 h

CCN(CC)C(=S)SSC(=S)N(CC)CC [Disulfiram] (max concentration tested 100000 nM)
drug sensitivity score [1]: 29.9
percent inhibition of viability ([2]; 10 nM): -4.71%
percent inhibition of viability ([2]; 100 nM): 1.75%
percent inhibition of viability ([2]; 1000 nM): 94.6%
percent inhibition of viability ([2]; 10000 nM): 74%
percent inhibition of viability ([2]; 100000 nM): 100%
drug sensitivity score [3]: 32.3
drug sensitivity score (NKL (IL-2 2.5 ng/mL) [4]): 31.1
drug sensitivity score (NK-92 (IL-2 2.5 ng/mL) [5]): 5.78
drug sensitivity score [6]: 30.4
drug sensitivity score (YT (IL-2 2.5 ng/mL) [7]): 6.46
drug sensitivity score (NK-YS (IL-2 2.5 ng/mL) [8]): 21.3
drug sensitivity score [9]: 30.3
drug sensitivity score (IMC-1 (IL-2 20 ng/mL) [10]): 20
drug sensitivity score (DERL-7 (IL-2 2.5 ng/mL) [11]): 32.9
drug sensitivity score [12]: 30.6
drug sensitivity score (KHYG-1 (IL-2 2.5 ng/mL) [13]): 18.2
drug sensitivity score (KAI3 (IL-2 2.5 ng/mL) [14]): 8.84
drug sensitivity score (SNK-6 (IL-2 2.5 ng/mL) [15]): 4.39
percent inhibition of viability ([16]; 10 nM): -8.13%
percent inhibition of viability ([16]; 100 nM): 11.6%
percent inhibition of viability ([16]; 1000 nM): 98.6%
percent inhibition of viability ([16]; 10000 nM): 98.2%
percent inhibition of viability ([16]; 100000 nM): 101%
percent inhibition of viability (NKL (IL-2 2.5 ng/mL) [17]; 10 nM): 2.6%
percent inhibition of viability (NKL (IL-2 2.5 ng/mL) [17]; 100 nM): 19.2%
percent inhibition of viability (NKL (IL-2 2.5 ng/mL) [17]; 1000 nM): 89.2%
percent inhibition of viability (NKL (IL-2 2.5 ng/mL) [17]; 10000 nM): 93.1%
percent inhibition of viability (NKL (IL-2 2.5 ng/mL) [17]; 100000 nM): 103%
percent inhibition of viability (NK-92 (IL-2 2.5 ng/mL) [18]; 10 nM): -0.19%
percent inhibition of viability (NK-92 (IL-2 2.5 ng/mL) [18]; 100 nM): -7.5%
percent inhibition of viability (NK-92 (IL-2 2.5 ng/mL) [18]; 1000 nM): 39.9%
percent inhibition of viability (NK-92 (IL-2 2.5 ng/mL) [18]; 10000 nM): 1.99%
percent inhibition of viability (NK-92 (IL-2 2.5 ng/mL) [18]; 100000 nM): 98.8%
percent inhibition of viability ([19]; 10 nM): -15.5%
percent inhibition of viability ([19]; 100 nM): 1.36%
percent inhibition of viability ([19]; 1000 nM): 98.2%
percent inhibition of viability ([19]; 10000 nM): 99.1%
percent inhibition of viability ([19]; 100000 nM): 101%
percent inhibition of viability (YT (IL-2 2.5 ng/mL) [20]; 10 nM): 3.15%
percent inhibition of viability (YT (IL-2 2.5 ng/mL) [20]; 100 nM): 1.21%
percent inhibition of viability (YT (IL-2 2.5 ng/mL) [20]; 1000 nM): 7.05%
percent inhibition of viability (YT (IL-2 2.5 ng/mL) [20]; 10000 nM): 7.11%
percent inhibition of viability (YT (IL-2 2.5 ng/mL) [20]; 100000 nM): 96.6%
percent inhibition of viability (NK-YS (IL-2 2.5 ng/mL) [21]; 10 nM): 1.28%
percent inhibition of viability (NK-YS (IL-2 2.5 ng/mL) [21]; 100 nM): 2.15%
percent inhibition of viability (NK-YS (IL-2 2.5 ng/mL) [21]; 1000 nM): 66.6%
percent inhibition of viability (NK-YS (IL-2 2.5 ng/mL) [21]; 10000 nM): 59.1%
percent inhibition of viability (NK-YS (IL-2 2.5 ng/mL) [21]; 100000 nM): 94.4%
percent inhibition of viability ([22]; 10 nM): 3.67%
percent inhibition of viability ([22]; 100 nM): -0.96%
percent inhibition of viability ([22]; 1000 nM): 99.8%
percent inhibition of viability ([22]; 10000 nM): 99.5%
percent inhibition of viability ([22]; 100000 nM): 101%
percent inhibition of viability (IMC-1 (IL-2 20 ng/mL) [23]; 10 nM): -0.36%
percent inhibition of viability (IMC-1 (IL-2 20 ng/mL) [23]; 100 nM): 2.91%
percent inhibition of viability (IMC-1 (IL-2 20 ng/mL) [23]; 1000 nM): 74.2%
percent inhibition of viability (IMC-1 (IL-2 20 ng/mL) [23]; 10000 nM): 44.6%
percent inhibition of viability (IMC-1 (IL-2 20 ng/mL) [23]; 100000 nM): 101%
percent inhibition of viability (DERL-7 (IL-2 2.5 ng/mL) [24]; 10 nM): 4.4%
percent inhibition of viability (DERL-7 (IL-2 2.5 ng/mL) [24]; 100 nM): 22.1%
percent inhibition of viability (DERL-7 (IL-2 2.5 ng/mL) [24]; 1000 nM): 97.2%
percent inhibition of viability (DERL-7 (IL-2 2.5 ng/mL) [24]; 10000 nM): 58.3%
percent inhibition of viability (DERL-7 (IL-2 2.5 ng/mL) [24]; 100000 nM): 100%
percent inhibition of viability ([25]; 10 nM): -2.82%
percent inhibition of viability ([25]; 100 nM): 3.62%
percent inhibition of viability ([25]; 1000 nM): 97.2%
percent inhibition of viability ([25]; 10000 nM): 97.5%
percent inhibition of viability ([25]; 100000 nM): 101%
percent inhibition of viability (KHYG-1 (IL-2 2.5 ng/mL) [26]; 10 nM): 1.86%
percent inhibition of viability (KHYG-1 (IL-2 2.5 ng/mL) [26]; 100 nM): 2.15%
percent inhibition of viability (KHYG-1 (IL-2 2.5 ng/mL) [26]; 1000 nM): 64.2%
percent inhibition of viability (KHYG-1 (IL-2 2.5 ng/mL) [26]; 10000 nM): 44.3%
percent inhibition of viability (KHYG-1 (IL-2 2.5 ng/mL) [26]; 100000 nM): 101%
percent inhibition of viability (KAI3 (IL-2 2.5 ng/mL) [27]; 10 nM): 0.03%
percent inhibition of viability (KAI3 (IL-2 2.5 ng/mL) [27]; 100 nM): -5.96%
percent inhibition of viability (KAI3 (IL-2 2.5 ng/mL) [27]; 1000 nM): 23.3%
percent inhibition of viability (KAI3 (IL-2 2.5 ng/mL) [27]; 10000 nM): 29.1%
percent inhibition of viability (KAI3 (IL-2 2.5 ng/mL) [27]; 100000 nM): 99.8%
percent inhibition of viability (SNK-6 (IL-2 2.5 ng/mL) [28]; 10 nM): 0.42%
percent inhibition of viability (SNK-6 (IL-2 2.5 ng/mL) [28]; 100 nM): -19.7%
percent inhibition of viability (SNK-6 (IL-2 2.5 ng/mL) [28]; 1000 nM): 11.4%
percent inhibition of viability (SNK-6 (IL-2 2.5 ng/mL) [28]; 10000 nM): -24.5%
percent inhibition of viability (SNK-6 (IL-2 2.5 ng/mL) [28]; 100000 nM): 100%
